Assay results taken from patent publication US20080113955A1, “TREATMENT OF INFANT HYPERBIL[…] LOW DOSAGES OF STANNSOPORFIN” (priority 2006, published 2008).

Columns and labels:
[1] = system: infant hyperbilirubinemia; experiment: Low-dose administration of stannsoporfin in infants with hyperbilirubinemia (all receiving phototherapy): serum bilirubin and need for exchange transfusion; format: in vivo, human; settings: for # transfused pts (babies total received exchange transfusions): intramuscular, before or after treatment
Procedure: (§1) Low-dose administration of stannsoporfin was tested in a group of infants in Hanoi, Vietnam and Michigan, United States. The known and unknown risks of the proposed study intervention and the potential for direct and indirect benefit were discussed with each subject's parents or guardians. Written informed consent was obtained from a parent or guardian of each subject before enrollment in the study. The study protocol was conducted under the guidelines of current Good Clinical Practice as promulgated by the United States Food and Drug Administration and international regulatory bodies. The study was reviewed and approved by the Institutional Review Board of the William Beaumont Hospital, Royal Oak, Mich., and the Vietnamese Ministry of Health and the Ethics Review Board of the National Hospital for Pediatrics of Hanoi.
All infants received phototherapy to treat hyperbilirubinemia; thus, the group designated as “placebo” were treated with phototherapy, as were the other groups. The placebo group had 18 babies total. […] The 0.75 mg/kg stannsoporfin group had 19 babies total. […] The 1.5 mg/kg stannsoporfin group had 18 babies total. […] Treatment refers to either placebo injection or stannsoporfin injection; as previously indicated, all babies received phototherapy. The placebo used was normal physiological saline. Stannsoporfin was administered via intramuscular injection in sodium phosphate buffer at a concentration of 20 mg/ml. A vial containing 1.5 ml was used, where a dose based on birthweight of the infant and whether a 0.75 mg/kg or 1.5 mg/kg dose was withdrawn. (For example, a 5 kg birthweight baby treated at a dose of 1.5 mg/kg would receive 7.5 mg of stannsoporfin; thus, a volume of 0.375 ml from the 20 mg/ml solution would be used to provide this dose.) In the majority of cases, the infants were between 4 and 7 days of age at the time of either stannsoporfin administration or exchange transfusion. The results are shown in FIG. 1 and FIG. 2; infants receiving stannsoporfin injections who required exchange transfusions before or after treatment are not included in the data presented in FIG. 1 for any group, while babies in the stannsoporfin groups who required exchange transfusion are excluded from FIG. 2 and only babies in the placebo group that did receive exchange transfusion are included in FIG. 2.

[2] = Side effects / adverse events in the low-dose stannsoporfin infant study; format: in vivo, human
Procedure: as §1
All infants received phototherapy to treat hyperbilirubinemia; thus, the group designated as “placebo” were treated with phototherapy, as were the other groups. The placebo group had 18 babies total. […] The 0.75 mg/kg stannsoporfin group had 19 babies total. […] The 1.5 mg/kg stannsoporfin group had 18 babies total. […] Treatment refers to either placebo injection or stannsoporfin injection; as previously indicated, all babies received phototherapy. The placebo used was normal physiological saline. Stannsoporfin was administered via intramuscular injection in sodium phosphate buffer at a concentration of 20 mg/ml. A vial containing 1.5 ml was used, where a dose based on birthweight of the infant and whether a 0.75 mg/kg or 1.5 mg/kg dose was withdrawn. (For example, a 5 kg birthweight baby treated at a dose of 1.5 mg/kg would receive 7.5 mg of stannsoporfin; thus, a volume of 0.375 ml from the 20 mg/ml solution would be used to provide this dose.) In the majority of cases, the infants were between 4 and 7 days of age at the time of either stannsoporfin administration or exchange transfusion. […]

jaundiced infants = settings: single dose of 6 umol/kg birthweight (4.5 mg/kg birthweight); cited from earlier work
[3] = 0.75 mg/kg group, 19 babies total
[4] = 1.5 mg/kg group, 18 babies total

## tin (IV) mesoporphyrin IX dichloride [stannsoporfin]
[1]; 0.75 mg/kg birthweight, N = 19, plus phototherapy
  # transfused pts (babies total received exchange transfusions): 3
[1]; [3]
  babies who did not receive an exchange transfusion: 16
  babies who received an exchange transfusion after treatment: 1
[1]; 0.75 mg/kg, N = 19
  % requiring transfusions: 16%
[1]; 1.5 mg/kg birthweight, N = 18, plus phototherapy
  # transfused pts (babies total received exchange transfusions): 2
[1]; [4]
  babies who did not receive exchange transfusion: 16
  babies who received an exchange transfusion after treatment: 2
[1]; 1.5 mg/kg, N = 18
  % requiring transfusions: 11%
[1]; 1.5 mg/kg, at 24 hours, FIG. 1
  significance value P versus placebo, serum bilirubin: < 0.05
[1]; 1.5 mg/kg, at 48 hours, FIG. 1
  significance value P versus placebo, serum bilirubin: < 0.001
[1]; 1.5 mg/kg, FIG. 2
  decrease in serum bilirubin compared with the exchange transfusion (placebo injection) group: greater than that for the exchange transfusion group at 3 of the 4 post-treatment data points
[1]; both doses, 0.75 mg/kg and 1.5 mg/kg, babies who required exchange transfusions excluded, FIG. 1
  reduction of serum bilirubin versus placebo (phototherapy only): greater reduction of serum bilirubin than the placebo group
[1]; both stannsoporfin groups, 0.75 mg/kg and 1.5 mg/kg, babies without exchange transfusion, FIG. 2
  percentage reduction in starting bilirubin levels: substantial decrease in serum bilirubin
[1]; low-dose stannsoporfin (0.75 and 1.5 mg/kg) versus control
  need for exchange transfusion: significantly decreased the need for exchange transfusion
[2]; all treatment groups
  adverse events considered probably or definitely related to the study treatment: None
[2]; each treatment group
  infants who experienced at least one adverse event: Greater than 60%
[2]; placebo, 0.75 mg/kg and 1.5 mg/kg groups
  incidence, severity, seriousness, and causality of adverse events, differences among the three treatment groups: no statistically significant differences
Jaundiced infants
  need for phototherapy in jaundiced infants: could avoid the need for phototherapy
